From paper PMC8961568 (Biomolecules, 2022) come the findings set out here.

The target in the assay is T1, HQDS.b. (Streptomyces bingchenggensis, UniProt D7BW96).
T1 construct: gene SBI_08688; His8-TEV tagged (pET28b), E. coli BL21(DE3), Ni-NTA purified
T1 sequence (D7BW96 1-278): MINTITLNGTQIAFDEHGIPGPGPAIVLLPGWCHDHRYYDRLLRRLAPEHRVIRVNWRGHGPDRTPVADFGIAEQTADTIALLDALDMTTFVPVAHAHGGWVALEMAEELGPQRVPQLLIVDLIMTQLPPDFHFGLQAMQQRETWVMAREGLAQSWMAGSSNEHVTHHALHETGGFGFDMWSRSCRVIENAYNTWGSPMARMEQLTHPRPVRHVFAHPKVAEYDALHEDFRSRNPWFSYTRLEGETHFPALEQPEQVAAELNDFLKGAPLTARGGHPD
The experiment in a line: spectrophotometric PQS consumption at […] nm. To be noted: 50 mM Tris, 2 mM EDTA, 10% PEG 1500, pH 8.0, 30 °C. In kind it is biochemical.

For `CCCCCCCc1[nH]c2ccccc2c(=O)c1O` [PQS, 2-heptyl-3-hydroxy-4(1H)-quinolone], the KM result was “HQDS.b., which exhibits the lowest KM towards PQS among the enzymes tested (Table S1)”.
